Laboratory results taken from patent publication US20230277518A1, “NK RECEPTOR ANTAGONISTS FOR CANCER PATIENTS” (Acer Therapeutics Inc., priority 2020, published 2023).

Tests used:
[1] = human, in vivo; cited from earlier work
[2] = Two-compartment PK model of osanetant fit to the Sanofi single-dose study; parameters: species or system human; settings: two-compartment model parameter
Source text: Osanetant (SR 142801) is an NK3 receptor antagonist originally identified by Sanofi. Patacchini R. et al. 1995, Eur J Pharmacol 278 (1):17-25; Nguyen-Le X. K. et al. 1996, Pharmacology 52 (5):283-91; Beaujouan J. C. et al. 1997, Eur J Pharmacol 319 (2-3):307-16; Emonds-Alt X. et al. 1995, Life Sci 56 (1):P127-32). Osanetant pharmacokinetics (PK) was derived from a Study Report by Sanofi describing concentration curves and PK summary data. A two-compartment PK model was derived from the data the concentration: time curves. […] A two-compartment pharmacokinetic model was fit to the single-dose study in the Sanofi Study report.

[3] = oral dosing, set in the multiple-dose PK model; cited from earlier work
[4] = animal study; cited from earlier work
CYP3A4 = CYP3A4 (Homo sapiens, UniProt P08684); settings: liver; cited from earlier work
CYP2D6 = CYP2D6 (Homo sapiens, UniProt P10635); settings: cited from earlier work
Sequence of CYP2D6 (P10635 whole entry): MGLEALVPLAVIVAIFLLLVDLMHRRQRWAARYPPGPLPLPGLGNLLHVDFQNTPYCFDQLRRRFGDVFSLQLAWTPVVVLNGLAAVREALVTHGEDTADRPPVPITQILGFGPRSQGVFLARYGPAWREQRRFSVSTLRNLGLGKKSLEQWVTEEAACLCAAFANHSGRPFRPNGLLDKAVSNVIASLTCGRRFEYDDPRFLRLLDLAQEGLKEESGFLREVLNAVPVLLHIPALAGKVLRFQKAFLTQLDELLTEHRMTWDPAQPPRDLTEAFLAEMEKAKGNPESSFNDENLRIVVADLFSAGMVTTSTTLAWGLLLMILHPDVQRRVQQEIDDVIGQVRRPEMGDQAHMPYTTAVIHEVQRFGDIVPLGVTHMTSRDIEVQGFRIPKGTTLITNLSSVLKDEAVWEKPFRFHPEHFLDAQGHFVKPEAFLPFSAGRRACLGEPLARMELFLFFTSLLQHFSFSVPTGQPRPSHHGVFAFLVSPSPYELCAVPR

Sequence of CYP3A4 (P08684 whole entry): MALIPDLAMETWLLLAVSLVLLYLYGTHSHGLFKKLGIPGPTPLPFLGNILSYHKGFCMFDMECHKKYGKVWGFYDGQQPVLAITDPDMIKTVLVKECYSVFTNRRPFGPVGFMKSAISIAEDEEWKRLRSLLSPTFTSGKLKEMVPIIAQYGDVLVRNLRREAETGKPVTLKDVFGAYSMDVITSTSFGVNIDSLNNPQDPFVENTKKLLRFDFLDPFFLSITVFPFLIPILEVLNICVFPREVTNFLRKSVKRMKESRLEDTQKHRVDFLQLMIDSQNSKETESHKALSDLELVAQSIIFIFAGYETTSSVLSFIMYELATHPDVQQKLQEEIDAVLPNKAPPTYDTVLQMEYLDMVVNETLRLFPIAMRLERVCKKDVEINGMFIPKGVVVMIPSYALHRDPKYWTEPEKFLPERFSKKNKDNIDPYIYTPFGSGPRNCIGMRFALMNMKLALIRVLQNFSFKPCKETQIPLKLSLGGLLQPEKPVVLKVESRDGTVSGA

SMILES	patients who experience increased frequency and/or duration of VMS [1]	Blood_Liver_transport_k [2]	Q [2]	Vol_central [2]	Vol_periph [2]	ka [2]	Bioavailability [3]	Brain/plasma concentration [4]	clearance mechanism (CYP3A4)	CYP2D6 activity (CYP2D6)
CCNC(=O)[C@@H]1CCCN1C(=O)[C@H](CCCNC(=N)N)NC(=O)[C@H](CC(C)C)NC(=O)[C@@H](CC(C)C)NC(=O)[C@H](Cc1ccc(O)cc1)NC(=O)[C@H](CO)NC(=O)[C@H](Cc1c[nH]c2ccccc12)NC(=O)[C@H](Cc1c[nH]cn1)NC(=O)[C@@H]1CCC(=O)N1 [leuprolide]	about 80%									
CC(=O)N(C)C1(c2ccccc2)CCN(CCC[C@]2(c3ccc(Cl)c(Cl)c3)CCCN(C(=O)c3ccccc3)C2)CC1 [osanetant, (R)—N-(1-(3-(1-benzoyl-3-(3,4-dichlorophenyl)piperidin-3-yl)propyl)-4-phenylpiperidin-4-yl)-N-methylacetamide]		0.011 min⁻¹	13.9 L/min	620 L	1768 L	0.039 min⁻¹	40%	0.8	CYP3A4 metabolism in the liver is the primary clearance mechanism	inhibits CYP2D6 activity
